Data reported in patent US20020103251A1, “Cholesterol-lowering therapy” (priority 1997, published 2002).

Columns and labels:
[1] = system: men and women with average to mildly elevated total and LDL-cholesterol, below average HDL-cholesterol and no clinical evidence of atherosclerotic …; experiment: AFCAPS/TexCAPS double-blind, randomized, placebo controlled primary prevention trial of lovastatin; format: in vivo, human
Description: The following is a description of a clinical trial referred to herein as “AFCAPS/TexCAPS” or “AFCAPS” employing lovastatin to exemplify the methods of the present invention.
AFCAPS/TexCAPS was a primary prevention endpoint event trial which: (1) included unstable angina as a primary endpoint, reflecting the trend to treat coronary heart disease aggressively before a myocardial infarction has occurred; 2) involved aggressive pharmacologic intervention, with titration, to target an LDL-cholesterol goal lower than current National Cholesterol Education Panel guidelines for primary prevention; and 3) included a cohort comprised of men and women with a broad age range encompassing the elderly and included persons with a lipid profile consisting of average total and LDL-cholesterol, below average HDL-cholesterol levels; total cholesterol/HDL-cholesterol ratio greater than or equal to 4.5, with a baseline mean ratio of 6.1 for the cohort; and LDL/HDL-cholesterol ratio greater than or equal to 4.
Entrance inclusion criteria were LDL-cholesterol 130-190 mg/dl (or <130 if the ratio of total cholesterol/HDL is >6) and HDL-cholesterol ≦45 mg/dl for men and ≦47 mg/dl for women.
AFCAPS/TexCAPS was a double-blind, randomized, placebo controlled trial designed and powered to investigate whether chronic lipid-lowering, with lovastatin will decrease the rate of first acute major coronary events (e.g. sudden cardiac death, fatal and non-fatal myocardial infarction and unstable angina) compared to intervention with diet alone during at least 4.5 years of follow-up in a cohort without clinical evidence of atherosclerotic cardiovascular disease and with average to mildly elevated total cholesterol, average to midly elevated LDL-cholesterol, and below average HDL-cholesterol. Secondary objectives included whether chronic treatment with lovastatin, compared to placebo, would decrease cardiovascular morbidity and mortality across the spectrum of clinical events, by measuring the rates of: (1) fatal and non-fatal coronary revascularization procedures (2) unstable angina, (3) fatal and non-fatal myocardial infarction, (4) fatal and non-fatal cardiovascular events, (5) fatal and non-fatal coronary events.
All participants underwent dietitian taught group instruction in the American Heart Association Step 1 diet commencing at least 12 weeks prior to randomization (Week -12) and reinforced at Weeks-4 and -2. Baseline observations included collection of medical history, health habit and demographic data, physical exam, eye exam (San Antonio clinic only), chest X-ray, mammogram (women), electrocardiogram and analysis of lipids/lipoproteins, hematology, blood chemistry and urine. A 2-week placebo baseline run-in was followed by randomization of eligible compliant participants to treatment with lovastatin or placebo.
Participants included 6605 men and women with normal to mildly elevated total and LDL-cholesterol and below average HDL-cholesterol defined as: total cholesterol 180-264 mg/dl, LDL-cholesterol 130-190 mg/dl, HDL-cholesterol ≦45 mg/dl for men and ≦47 mg/dl for women and triglycerides ≦400 mg/dl. All lipid/lipoprotein entrance criteria had to be met on average at both four and two weeks prior to randomization (after at least eight weeks of diet therapy). In addition, for both total and LDL-cholesterol, the two eligibility determinations had to be within 15% of each other.
Excluded for clinical evidence of atherosclerotic cardiovascular disease were men and women who had: prior history of myocardial infarction; angina; claudication; cerebrovascular accident; or transient ischemic attack. Also excluded were those aged >73 years or <45 years (men) or <55 years (women) or those with secondary hyperlipoproteinemia, nephrotic syndrome, uncontrolled or insulin-dependent diabetes mellitus or uncontrolled hypertension.

[2] = system: patients with hypercholesterolemia and/or CHD; conditions: coronary and carotid arteries; cited from earlier work
[3] = Secondary Endpoint: Fatal and Nonfatal Coronary Events, lovastatin vs placebo
[4] = first acute major coronary events, baseline HDL-C tertile 34.5-39.5 mg/dl
[5] = first acute major coronary events, baseline HDL-C tertile <34.0 mg/dl
[6] = first acute major coronary events, baseline HDL-C tertile >39.5 mg/dl
[7] = first acute major coronary events, baseline LDL-C tertile 142.0-156.8 mg/dl
[8] = first acute major coronary events, baseline LDL-C tertile <142 mg/dl
[9] = first acute major coronary events, baseline LDL-C tertile >156.9 mg/dl

CC[C@H](C)C(=O)O[C@H]1C[C@@H](C)C=C2C=C[C@H](C)[C@H](CC[C@@H]3C[C@@H](O)CC(=O)O3)[C@H]21 [lovastatin]
Relative Risk (C.I.) ([1]; Primary Endpoint: acute major coronary events, lovastatin 20-40 mg once a day vs placebo, median 5.2 years): 0.63 (0.50, 0.79), | Relative Risk (C.I.) ([1]; Secondary Endpoint: Fatal and Nonfatal Cardiovascular Events, lovastatin vs placebo): 0.75 (0.62, 0.91), | Relative Risk (C.I.) [1, 3]: 0.75 (0.61, 0.92), | Risk Reduction [1, 3]: 25% | Relative Risk (C.I.) ([1]; Secondary Endpoint: Fatal and Nonfatal MI, lovastatin vs placebo): 0.60 (0.43, 0.83), | Relative Risk (C.I.) ([1]; Secondary Endpoint: Revascularizations, lovastatin vs placebo): 0.67 (0.52, 0.85), | Relative Risk (C.I.) ([1]; Secondary Endpoint: Unstable Angina, lovastatin vs placebo): 0.68 (0.48, 0.95), | % change in HDL-C from baseline to the one year point ([1]; baseline HDL-C tertile 34.5-39.5 mg/dl): 6.2% | % change in HDL-C from baseline to the one year point ([1]; baseline HDL-C tertile <34.0 mg/dl): 7.4% | % change in HDL-C from baseline to the one year point ([1]; baseline HDL-C tertile >39.5 mg/dl): 4.3% | % change in LDL-C from baseline to the one year point ([1]; baseline LDL-C tertile 142.0-156.8 mg/dl): −26.0% | % change in LDL-C from baseline to the one year point ([1]; baseline LDL-C tertile <142 mg/dl): −20.1% | % change in LDL-C from baseline to the one year point ([1]; baseline LDL-C tertile >156.9 mg/dl): −28.9% | dependence of risk reduction on baseline LDL-C and HDL-C ([1]; first acute major coronary events by LDL-C and HDL-C tertiles at randomization): independent of baseline LDL-C and HDL-C | Relative Risk (95% C.I.) [1, 4]: 0.57 | Risk Reduction [1, 4]: 43% | Relative Risk (95% C.I.) [1, 5]: 0.55 | Risk Reduction [1, 5]: 45% | Relative Risk (95% C.I.) [1, 6]: 0.85 | Risk Reduction [1, 6]: 15% | Relative Risk (95% C.I.) [1, 7]: 0.64 | Risk Reduction [1, 7]: 36% | Relative Risk (95% C.I.) [1, 8]: 0.66 | Risk Reduction [1, 8]: 34% | Relative Risk (95% C.I.) [1, 9]: 0.59 | Risk Reduction [1, 9]: 41% | progression of atherosclerotic lesions [2]: slow the progression of atherosclerotic lesions
